Test results reported in patent publication US8455649B2, “Insecticidal substituted azinyl derivatives” (Dow AgroSciences, LLC, priority 2007, dated 2013).

What was measured:
[1] = tested on: Corn Earworm (Helicoverpa zea); assay: Insecticidal diet-surface test for corn earworm; type: in vivo; conditions: 120 h, second-instar larvae on treated diet, 50 μg/cm^2 on diet surface, 5 days after treatment, 8 insects per treatment, read-out: HELIZE AVG % Mortality (50 μg/cm^2)
In short: (§1)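 Second-instar larvae placed on lepidopteran diet surface-treated with 50 μL of 2000 ppm compound in 9 acetone:1 water (stated as 50 μg/cm^2), eight wells per species. Held 5 days at 25° C, 50-55% RH, 16:8 h light:dark; mortality of 8 larvae scored as percent control.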

[2] = tested on: Beet Armyworm (Spodoptera exigua); assay: Insecticidal diet-surface test for beet armyworm; type: in vivo; conditions: 120 h, second-instar larvae on treated diet, 50 μg/cm^2 on diet surface, 5 days after treatment, 8 insects per treatment, read-out: LAPHEG AVG % Mortality (50 μg/cm^2)
In short: as §1

CN(C(=O)Nc1cc(C(F)(F)F)cc(OCC(F)(F)F)n1)c1ccc(OC(F)(F)F)cc1 [Compound 168]
mortality at 50 µg/cm2 [1]: 100%
mortality at 50 µg/cm2 [2]: 100%

CN(C(=O)Nc1cc(C(F)(F)F)cc(OCC(F)(F)F)n1)c1ccc(Br)nc1 [Compound 169]
mortality at 50 µg/cm2 [1]: 100%
mortality at 50 µg/cm2 [2]: 100%

CN(C(=O)Nc1cc(C(F)(F)F)cc(OCC(F)(F)F)n1)c1ccc(C(F)(F)F)nc1 [Compound 170]
mortality at 50 µg/cm2 [1]: 100%
mortality at 50 µg/cm2 [2]: 75%

O=C(Nc1ccc(Br)nc1)Nc1cc(C(F)(F)F)cc(OCC(F)(F)F)n1 [Compound 171]
mortality at 50 µg/cm2 [1]: 100%
mortality at 50 µg/cm2 [2]: 100%

O=C(Nc1ccc(C(F)(F)F)cc1)Nc1nc(OCC(F)(F)C(F)(F)F)cc(OCC(F)(F)C(F)(F)F)n1 [Compound 174]
mortality at 50 µg/cm2 [1]: 100%
mortality at 50 µg/cm2 [2]: 0%

O=C(Nc1ccc(C(F)(F)F)cc1)Nc1nc(OCC(F)(F)C(F)F)cc(OCC(F)(F)C(F)F)n1 [Compound 175]
mortality at 50 µg/cm2 [1]: 100%
mortality at 50 µg/cm2 [2]: 100%

CN(C(=O)Nc1nc(OCC(F)(F)C(F)(F)F)cc(OCC(F)(F)C(F)(F)F)n1)c1ccc(C(F)(F)F)cc1 [Compound 176]
mortality at 50 µg/cm2 [1]: 100%
mortality at 50 µg/cm2 [2]: 100%

CN(C(=O)Nc1nc(OCC(F)(F)C(F)F)cc(OCC(F)(F)C(F)F)n1)c1ccc(C(F)(F)F)cc1 [Compound 177]
mortality at 50 µg/cm2 [1]: 100%
mortality at 50 µg/cm2 [2]: 100%

O=C(Nc1nc(OCC(F)(F)F)cc(OCC(F)(F)F)n1)Nc1c(Cl)cc(OC(F)(F)F)cc1Cl [Compound 178]
mortality at 50 µg/cm2 [1]: 100%
mortality at 50 µg/cm2 [2]: 100%

O=C(Nc1nc(OCC(F)(F)F)cc(OCC(F)(F)F)n1)Nc1c(Cl)cc(Br)cc1Cl [Compound 180]
mortality at 50 µg/cm2 [1]: 100%
mortality at 50 µg/cm2 [2]: 100%

CN(C(=O)Nc1nc(OCC(F)(F)F)cc(OCC(F)(F)F)n1)c1ccc(Br)c(C(F)(F)F)c1 [Compound 181]
mortality at 50 µg/cm2 [1]: 100%
mortality at 50 µg/cm2 [2]: 100%

CN(C(=O)Nc1nc(OCC(F)(F)F)cc(OCC(F)(F)F)n1)c1cc(F)c(Br)cc1F [Compound 182]
mortality at 50 µg/cm2 [1]: 100%
mortality at 50 µg/cm2 [2]: 100%

CN(C(=O)Nc1nc(OCC(F)(F)F)cc(OCC(F)(F)F)c1F)c1ccc(Br)cc1 [Compound 183, N′-[3-fluoro-4,6-bis(2,2,2-trifluoroethoxy)pyridin-2-yl]-N-methyl-N-(4-bromophenyl)urea]
mortality at 50 µg/cm2 [1]: 50%
mortality at 50 µg/cm2 [2]: 100%

CN(C(=O)Nc1nc(OCC(F)(F)F)cc(OCC(F)(F)F)c1F)c1ccc(C(F)(F)F)cc1 [Compound 184]
mortality at 50 µg/cm2 [1]: 100%
mortality at 50 µg/cm2 [2]: 100%

CN(C(=O)Nc1nc(OCC(F)(F)F)cc(OCC(F)(F)F)c1F)c1ccc(OC(F)(F)F)cc1 [Compound 185]
mortality at 50 µg/cm2 [1]: 100%
mortality at 50 µg/cm2 [2]: 100%
